3 molecules from patent US20100286038A1, “FORMULATION CONTAINING CYCLIN-DEPENDENT KINASE INHIBITING COMPOUND AND METHOD OF TREATING TUMORS USING THE SAME” (priority 2007, published 2010) can be followed below.

Where two headings read alike, the source gives them in different places.

As usually defined, the remaining activity is the share of the control activity or signal that is left under treatment. Lower therefore signals little activity left. A word on the IC50: it is the concentration needed to halve the response being measured. Low values mean inhibition by little substance, high ones a need for much substance.

One data set deals with H82 (SCLC). The data set can be described thus: xenograft tumor model. The following applies: mouse, in vivo.
For the next data set, the target named is T1, PKCθ (Homo sapiens, UniProt Q04759).
T1 construct: purchased Upstate
The data set can be described thus: Upstate kinase Profiler counter-screening. The format is biochemical. In general terms: Counterscreens check selectivity or assay interference.

The target of the next data set is T2, Rsk2 (Homo sapiens, UniProt P51812).
T2 construct: purchased Upstate
The data set can be described thus: Upstate kinase Profiler counter-screening. Format: biochemical.

The target of another data set is T3, PKCα (Homo sapiens, UniProt P17252).
T3 construct: purchased Upstate
Nature of the data set: Upstate kinase Profiler counter-screening. The format is biochemical.

A further data set addresses T4, PKCε (Homo sapiens, UniProt Q02156).
T4 construct: purchased Upstate
T4 sequence (Q02156 1-737): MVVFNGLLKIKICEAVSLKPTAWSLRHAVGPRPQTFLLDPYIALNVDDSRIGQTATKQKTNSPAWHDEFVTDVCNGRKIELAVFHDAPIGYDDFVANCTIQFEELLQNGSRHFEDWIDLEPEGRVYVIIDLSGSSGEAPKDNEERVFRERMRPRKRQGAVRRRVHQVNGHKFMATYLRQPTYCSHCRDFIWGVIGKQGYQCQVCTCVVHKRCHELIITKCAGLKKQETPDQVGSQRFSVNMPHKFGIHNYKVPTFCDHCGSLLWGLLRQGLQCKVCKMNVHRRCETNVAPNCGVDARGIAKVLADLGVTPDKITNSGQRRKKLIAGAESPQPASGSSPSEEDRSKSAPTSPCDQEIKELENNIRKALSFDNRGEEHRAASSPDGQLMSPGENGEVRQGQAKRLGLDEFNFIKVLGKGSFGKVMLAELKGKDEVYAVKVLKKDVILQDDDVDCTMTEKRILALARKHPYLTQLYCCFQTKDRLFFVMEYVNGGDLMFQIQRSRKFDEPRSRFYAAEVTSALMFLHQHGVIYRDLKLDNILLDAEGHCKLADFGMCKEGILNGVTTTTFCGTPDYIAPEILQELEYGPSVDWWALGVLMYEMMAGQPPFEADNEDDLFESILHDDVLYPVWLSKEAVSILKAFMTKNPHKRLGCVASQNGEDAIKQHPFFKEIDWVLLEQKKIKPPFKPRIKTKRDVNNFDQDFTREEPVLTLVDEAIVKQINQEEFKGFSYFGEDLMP
The data set can be described thus: Upstate kinase Profiler counter-screening. The format is biochemical.

For another data set, the system named is AMPK. The data set can be described thus: Upstate kinase Profiler counter-screening. The format is biochemical.
A further data set deals with T5, CDK7/cyclinH/MAT1 (Homo sapiens, UniProt P50613).
T5 construct: purchased Upstate
Nature of the data set: Upstate kinase Profiler counter-screening. Format: biochemical.

In data set [1] the test system is A2780 ovarian carcinoma xenografts. Nature of the data set: A2780 xenograft ovarian cancer model. Format: in vivo, nude mice.
A further data set addresses T6, Fes (Homo sapiens, UniProt P07332).
T6 construct: purchased Upstate
The data set can be described thus: Upstate kinase Profiler counter-screening. The format is biochemical.

In the next data set the target is T7, cSRC (Homo sapiens, UniProt P12931).
T7 construct: purchased Upstate
The data set can be described thus: Upstate kinase Profiler counter-screening. Format: biochemical.

A further data set has as its target T8, MSK1 (Homo sapiens, UniProt O75582).
T8 construct: purchased Upstate
Nature of the data set: Upstate kinase Profiler counter-screening. Format: biochemical.

Another data set deals with T9, YES (Homo sapiens, UniProt P07947).
T9 construct: purchased Upstate
Nature of the data set: Upstate kinase Profiler counter-screening. Format: biochemical.

Data set [2] concerns A2780 cells. The conditions noted are these: 16 hours exposure.
Excerpt: Accumulation of the p85 PARP product was also monitored to assess activation of caspases and correlate inhibition of CDKs with the onset of apoptosis.
The target in another data set is T10, Lyn (Homo sapiens, UniProt P07948).
T10 construct: purchased Upstate
Nature of the data set: Upstate kinase Profiler counter-screening. Format: biochemical.

The nature of the next data set: in vivo. The conditions noted are these: nude, mouse, ip.
A further data set deals with CaMKII. The format is biochemical.
Data set [3] has as its system A2780 cells. Nature of the data set: in-cell inhibition of thymidine incorporation. Format: cell-based. The conditions noted are these: Homo sapiens. On the technique in general: Uptake of a labelled nucleoside into DNA is a usual measure of proliferation.
The next data set deals with T11, CDK6/cyclinD3 (Homo sapiens, UniProt Q00534).
T11 construct: purchased Upstate
The data set can be described thus: Upstate kinase Profiler counter-screening. The format is biochemical.

In the next data set the target is T12, PKCβII (Homo sapiens, UniProt P05771).
T12 construct: purchased Upstate
Nature of the data set: Upstate kinase Profiler counter-screening. Format: biochemical.

A further data set has as its system A549 NSCLC xenografts. The conditions noted are these: mouse, in vivo.

T9 sequence (P07947 whole entry, species assumed): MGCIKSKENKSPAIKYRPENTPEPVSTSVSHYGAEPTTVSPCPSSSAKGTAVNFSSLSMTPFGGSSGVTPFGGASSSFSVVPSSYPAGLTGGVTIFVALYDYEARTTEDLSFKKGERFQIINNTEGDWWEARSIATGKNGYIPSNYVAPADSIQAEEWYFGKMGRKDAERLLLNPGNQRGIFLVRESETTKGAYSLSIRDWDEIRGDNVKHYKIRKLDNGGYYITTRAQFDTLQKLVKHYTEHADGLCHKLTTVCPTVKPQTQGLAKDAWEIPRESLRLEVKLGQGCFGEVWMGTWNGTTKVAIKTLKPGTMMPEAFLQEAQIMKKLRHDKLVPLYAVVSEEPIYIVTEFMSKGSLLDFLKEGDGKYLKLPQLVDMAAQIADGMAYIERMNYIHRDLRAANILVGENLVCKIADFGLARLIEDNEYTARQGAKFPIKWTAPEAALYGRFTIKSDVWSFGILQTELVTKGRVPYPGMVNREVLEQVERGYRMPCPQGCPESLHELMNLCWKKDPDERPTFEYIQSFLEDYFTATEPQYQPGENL
T1 sequence (Q04759 whole entry): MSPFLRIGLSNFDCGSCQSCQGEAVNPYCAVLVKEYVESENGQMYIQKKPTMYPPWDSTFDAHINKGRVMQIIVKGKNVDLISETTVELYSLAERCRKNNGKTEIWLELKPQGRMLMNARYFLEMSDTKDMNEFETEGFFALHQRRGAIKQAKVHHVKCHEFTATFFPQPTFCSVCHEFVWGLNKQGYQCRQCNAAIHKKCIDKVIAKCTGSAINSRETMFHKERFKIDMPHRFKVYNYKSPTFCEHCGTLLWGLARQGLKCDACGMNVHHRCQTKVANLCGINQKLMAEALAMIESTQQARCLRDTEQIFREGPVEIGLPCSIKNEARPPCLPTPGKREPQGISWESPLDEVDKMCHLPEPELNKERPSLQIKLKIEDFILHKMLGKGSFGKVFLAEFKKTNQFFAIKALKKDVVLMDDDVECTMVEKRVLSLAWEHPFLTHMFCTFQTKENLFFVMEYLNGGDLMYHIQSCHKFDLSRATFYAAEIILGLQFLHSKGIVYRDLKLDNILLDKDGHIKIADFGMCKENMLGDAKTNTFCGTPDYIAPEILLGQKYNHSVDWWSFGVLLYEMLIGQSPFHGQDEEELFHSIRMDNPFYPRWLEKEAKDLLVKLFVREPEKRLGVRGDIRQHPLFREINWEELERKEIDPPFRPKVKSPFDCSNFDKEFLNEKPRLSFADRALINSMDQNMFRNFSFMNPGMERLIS
T6 sequence (P07332 whole entry, species assumed): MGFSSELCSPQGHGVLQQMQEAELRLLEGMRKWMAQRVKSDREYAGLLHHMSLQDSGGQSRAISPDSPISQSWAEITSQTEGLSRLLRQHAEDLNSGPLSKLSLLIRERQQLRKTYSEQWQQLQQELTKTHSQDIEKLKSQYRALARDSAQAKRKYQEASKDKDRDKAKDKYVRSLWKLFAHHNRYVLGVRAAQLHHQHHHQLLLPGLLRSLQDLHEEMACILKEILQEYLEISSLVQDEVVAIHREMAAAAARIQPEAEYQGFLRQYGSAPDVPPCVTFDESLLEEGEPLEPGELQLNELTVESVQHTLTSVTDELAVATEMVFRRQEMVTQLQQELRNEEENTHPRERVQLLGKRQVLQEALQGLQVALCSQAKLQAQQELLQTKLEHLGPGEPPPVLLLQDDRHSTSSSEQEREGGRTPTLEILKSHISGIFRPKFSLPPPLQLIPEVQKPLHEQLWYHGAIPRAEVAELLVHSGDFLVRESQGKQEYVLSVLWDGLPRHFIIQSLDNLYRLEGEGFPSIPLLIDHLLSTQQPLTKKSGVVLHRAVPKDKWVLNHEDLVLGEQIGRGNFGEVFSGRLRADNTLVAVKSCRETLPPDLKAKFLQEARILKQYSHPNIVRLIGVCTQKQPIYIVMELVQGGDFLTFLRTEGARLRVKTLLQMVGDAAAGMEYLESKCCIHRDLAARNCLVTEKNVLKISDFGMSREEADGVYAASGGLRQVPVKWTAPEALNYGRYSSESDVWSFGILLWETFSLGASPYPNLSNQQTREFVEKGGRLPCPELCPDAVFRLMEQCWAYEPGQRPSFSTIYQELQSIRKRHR
T10 sequence (P07948 whole entry, species assumed): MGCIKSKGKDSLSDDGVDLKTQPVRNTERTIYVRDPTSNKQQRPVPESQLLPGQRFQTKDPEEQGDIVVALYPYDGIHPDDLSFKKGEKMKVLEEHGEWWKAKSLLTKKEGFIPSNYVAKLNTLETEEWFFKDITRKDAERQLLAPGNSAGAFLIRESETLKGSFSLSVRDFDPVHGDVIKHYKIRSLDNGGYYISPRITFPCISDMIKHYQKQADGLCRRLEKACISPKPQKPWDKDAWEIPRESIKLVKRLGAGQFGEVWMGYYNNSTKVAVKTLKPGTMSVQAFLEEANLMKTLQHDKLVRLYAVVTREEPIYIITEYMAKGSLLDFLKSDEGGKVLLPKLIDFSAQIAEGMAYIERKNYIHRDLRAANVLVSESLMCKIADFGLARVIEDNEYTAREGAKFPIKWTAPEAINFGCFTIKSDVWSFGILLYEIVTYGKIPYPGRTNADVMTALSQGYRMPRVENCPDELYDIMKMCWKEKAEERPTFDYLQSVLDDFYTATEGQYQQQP
T5 sequence (P50613 whole entry, species assumed): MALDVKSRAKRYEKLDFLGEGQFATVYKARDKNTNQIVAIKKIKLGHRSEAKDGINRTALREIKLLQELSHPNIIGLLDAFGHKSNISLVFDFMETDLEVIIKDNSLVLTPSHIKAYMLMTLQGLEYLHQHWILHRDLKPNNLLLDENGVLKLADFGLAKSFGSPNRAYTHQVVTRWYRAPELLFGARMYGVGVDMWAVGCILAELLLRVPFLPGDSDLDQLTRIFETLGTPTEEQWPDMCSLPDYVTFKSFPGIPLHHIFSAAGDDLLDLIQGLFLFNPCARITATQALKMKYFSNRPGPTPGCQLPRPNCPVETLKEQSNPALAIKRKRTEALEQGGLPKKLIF
T5 sequence (P51946 whole entry partner, species assumed): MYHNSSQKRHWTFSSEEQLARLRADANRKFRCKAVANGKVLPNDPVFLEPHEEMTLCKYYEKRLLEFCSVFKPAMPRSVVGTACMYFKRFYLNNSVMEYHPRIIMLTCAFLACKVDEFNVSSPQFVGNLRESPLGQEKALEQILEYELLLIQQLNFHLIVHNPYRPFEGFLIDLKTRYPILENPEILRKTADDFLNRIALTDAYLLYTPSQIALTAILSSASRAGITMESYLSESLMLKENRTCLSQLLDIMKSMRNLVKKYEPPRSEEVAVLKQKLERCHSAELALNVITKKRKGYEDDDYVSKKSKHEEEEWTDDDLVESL
T5 sequence (P51948 whole entry partner, species assumed): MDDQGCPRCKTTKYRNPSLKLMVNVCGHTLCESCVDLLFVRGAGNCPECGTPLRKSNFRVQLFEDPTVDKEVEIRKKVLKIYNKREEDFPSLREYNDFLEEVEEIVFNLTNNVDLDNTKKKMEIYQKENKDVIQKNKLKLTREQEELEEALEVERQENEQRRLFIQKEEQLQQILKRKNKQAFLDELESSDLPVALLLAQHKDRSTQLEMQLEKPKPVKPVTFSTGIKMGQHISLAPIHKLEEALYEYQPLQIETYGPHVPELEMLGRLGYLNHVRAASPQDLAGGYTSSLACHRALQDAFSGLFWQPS
T7 sequence (P12931 whole entry, species assumed): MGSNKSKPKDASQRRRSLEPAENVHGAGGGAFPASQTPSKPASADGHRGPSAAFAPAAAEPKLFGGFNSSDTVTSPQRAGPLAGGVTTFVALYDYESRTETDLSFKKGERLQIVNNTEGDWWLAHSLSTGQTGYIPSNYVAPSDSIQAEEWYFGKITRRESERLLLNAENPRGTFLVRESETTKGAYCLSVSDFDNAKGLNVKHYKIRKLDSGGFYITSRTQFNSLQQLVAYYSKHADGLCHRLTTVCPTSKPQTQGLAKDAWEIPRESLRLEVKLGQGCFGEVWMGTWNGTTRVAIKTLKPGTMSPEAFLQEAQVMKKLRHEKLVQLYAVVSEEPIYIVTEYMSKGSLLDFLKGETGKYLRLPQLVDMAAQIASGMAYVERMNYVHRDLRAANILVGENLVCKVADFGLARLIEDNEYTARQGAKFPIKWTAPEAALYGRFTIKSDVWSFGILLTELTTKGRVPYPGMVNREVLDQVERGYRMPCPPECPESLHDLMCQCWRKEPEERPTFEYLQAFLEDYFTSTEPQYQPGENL

As for `N.N.O=C([O-])C1(C(=O)[O-])CCC1.[Pt+2]` [carboplatin, reference compound], in the data set on H82 (SCLC), the “% inhibition observed with benchmark cytotoxic agent” value is recorded as 40%.
Turning to `CN1CC[C@H](c2c(O)cc(O)c3c(=O)cc(-c4ccccc4Cl)oc23)[C@H](O)C1` [Formula III, Flavopiridol, reference compound], the remaining activity at 1 µM on PKCθ (at 1 μM) is 23%; at Rsk2 (at 1 μM), 65%; at PKCα (at 1 μM), 66%; on PKCε (at 1 μM), 45%; on CDK7/cyclinH/MAT1 (at 1 μM), 18%; on Fes (at 1 μM), 44%. In addition, the remaining activity at 1 µM is 3% at cSRC (at 1 μM); 74% on MSK1 (at 1 μM); 68% at YES (at 1 μM); 73% on Lyn (at 1 μM); 25% on CDK6/cyclinD3 (at 1 μM); 75% on PKCβII (at 1 μM). For the same molecule, the remaining activity at 10 µM turned out to be 5% at PKCθ (at 10 μM); 18% at Rsk2 (at 10 μM); 20% at PKCα (at 10 μM); 9% at PKCε (at 10 μM); 6% at CDK7/cyclinH/MAT1 (at 10 μM); 13% on Fes (at 10 μM). Further, the remaining activity at 10 µM on cSRC (at 10 μM) was determined as 4%; on MSK1 (at 10 μM), 37%; at YES (at 10 μM), 40%; on Lyn (at 10 μM), 18%; at CDK6/cyclinD3 (at 10 μM), 6%; on PKCβII (at 10 μM), 26%. Besides, the “% remaining activity” value amounted to 67% with AMPK (at 1 μM), 20% in the data set with AMPK (at 10 μM), 44% in the data set with CaMKII (at 1 μM) and 30% in the data set with CaMKII (at 10 μM). This molecule also showed an MED in [1] (once per day IP for 7 days, dose inducing at least 50% inhibition of tumor growth) of 10 mg/kg. Moreover, the “concentration required to induce detectable effects on phospho-Ser 807/811 levels” value in the data set with A2780 cells [2] was “about 1 micromolar”. Further, in the data set “in vivo”, the MTD at 7 days was below 10 mg/kg. In the data set with A2780 cells [3], this molecule displayed an IC50 of 70 nM.
With `CC(=O)O[C@H]1C(=O)[C@@]2(C)[C@H]([C@H](OC(=O)c3ccccc3)[C@]3(O)C[C@H](OC(=O)[C@H](O)[C@@H](NC(=O)c4ccccc4)c4ccccc4)C(C)=C1C3(C)C)[C@]1(OC(C)=O)CO[C@@H]1C[C@@H]2O` [paclitaxel, reference compound], the “% inhibition observed with benchmark cytotoxic agent” value in the data set with A549 NSCLC xenografts was 0%. The same molecule came in with a tumor growth inhibited in data set [1] (20 mg/kg IP twice weekly, ten day period) of 63%.
